Measurements: ChEMBL document CHEMBL1201862, “PubChem BioAssay data set” (2004)
Calls of active or inactive are those of the source.

Assays:
[1] = target: T1, Rac GTPase-activating protein 1 (Homo sapiens, UniProt Q9H0H5); assay: blockers of MgcRacGAP-driven Rac1 GTP hydrolysis – biochemical, ADP Hunter fluorescence, primary and confirmatory, confirmation (AID 624330); assay type: functional
T1 sequence (Q9H0H5 whole entry): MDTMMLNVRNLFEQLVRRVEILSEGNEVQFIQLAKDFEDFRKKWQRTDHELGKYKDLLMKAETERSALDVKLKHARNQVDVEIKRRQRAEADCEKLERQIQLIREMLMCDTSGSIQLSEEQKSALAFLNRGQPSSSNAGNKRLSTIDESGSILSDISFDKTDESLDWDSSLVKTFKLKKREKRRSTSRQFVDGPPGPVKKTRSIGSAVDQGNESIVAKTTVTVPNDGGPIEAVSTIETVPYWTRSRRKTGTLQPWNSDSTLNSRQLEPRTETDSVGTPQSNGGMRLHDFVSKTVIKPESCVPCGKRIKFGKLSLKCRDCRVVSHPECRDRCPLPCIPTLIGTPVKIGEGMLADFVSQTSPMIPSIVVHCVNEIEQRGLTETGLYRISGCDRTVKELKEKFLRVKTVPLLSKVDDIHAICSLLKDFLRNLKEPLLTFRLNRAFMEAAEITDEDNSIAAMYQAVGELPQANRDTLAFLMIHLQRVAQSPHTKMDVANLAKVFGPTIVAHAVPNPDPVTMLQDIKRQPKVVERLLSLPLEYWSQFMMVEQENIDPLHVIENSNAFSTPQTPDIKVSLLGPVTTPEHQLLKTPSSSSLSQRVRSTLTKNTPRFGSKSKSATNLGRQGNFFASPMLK

[2] = target: FAD-linked sulfhydryl oxidase ALR (Homo sapiens, UniProt P55789); assay: ALR-catalysed DTT oxidation blockers – biochemical, H2O2 detection, luminescence, cherry-pick, dose response (AID 493248)
[3] = HIV-1 Vif–A3G interaction blockers – biochemical, TR-FRET, GST-Vif 1-94, biotin-A3G peptide, dose response retest, primary screen (AID 1117319); assay type: functional;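 note: TR-FRET signal of purified GST-Vif binding a biotinylated A3G peptide; inhibitors lower the FRET signal by blocking Vif and A3G binding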
[4] = target: T2, Estrogen receptor (Homo sapiens, UniProt P03372);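 note: potency for inhibiting coactivator peptide recruitment to the receptor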
T2 sequence (P03372 whole entry): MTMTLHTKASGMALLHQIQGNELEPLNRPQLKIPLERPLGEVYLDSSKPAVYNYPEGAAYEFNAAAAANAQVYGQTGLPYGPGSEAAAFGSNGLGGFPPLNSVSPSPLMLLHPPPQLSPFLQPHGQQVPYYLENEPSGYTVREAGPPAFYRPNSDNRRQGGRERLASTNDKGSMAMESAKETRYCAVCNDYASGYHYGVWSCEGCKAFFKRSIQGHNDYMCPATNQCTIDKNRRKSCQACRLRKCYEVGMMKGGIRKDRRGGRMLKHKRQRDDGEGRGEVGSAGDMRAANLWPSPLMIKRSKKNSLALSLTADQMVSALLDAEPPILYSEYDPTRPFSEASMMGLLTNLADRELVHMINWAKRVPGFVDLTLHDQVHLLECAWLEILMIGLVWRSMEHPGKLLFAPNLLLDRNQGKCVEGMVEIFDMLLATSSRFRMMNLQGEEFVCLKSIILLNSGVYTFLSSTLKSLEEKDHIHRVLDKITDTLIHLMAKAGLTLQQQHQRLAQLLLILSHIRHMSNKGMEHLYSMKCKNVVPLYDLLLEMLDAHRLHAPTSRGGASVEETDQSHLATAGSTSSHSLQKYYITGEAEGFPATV

[5] = target: T3, Hexokinase HKDC1 (Homo sapiens, UniProt Q2TB90); assay: inhibition of HKDC1 glucose phosphorylation – biochemical, W721R variant, dose response (AID 504729); assay type: functional
T3 sequence (Q2TB90 whole entry): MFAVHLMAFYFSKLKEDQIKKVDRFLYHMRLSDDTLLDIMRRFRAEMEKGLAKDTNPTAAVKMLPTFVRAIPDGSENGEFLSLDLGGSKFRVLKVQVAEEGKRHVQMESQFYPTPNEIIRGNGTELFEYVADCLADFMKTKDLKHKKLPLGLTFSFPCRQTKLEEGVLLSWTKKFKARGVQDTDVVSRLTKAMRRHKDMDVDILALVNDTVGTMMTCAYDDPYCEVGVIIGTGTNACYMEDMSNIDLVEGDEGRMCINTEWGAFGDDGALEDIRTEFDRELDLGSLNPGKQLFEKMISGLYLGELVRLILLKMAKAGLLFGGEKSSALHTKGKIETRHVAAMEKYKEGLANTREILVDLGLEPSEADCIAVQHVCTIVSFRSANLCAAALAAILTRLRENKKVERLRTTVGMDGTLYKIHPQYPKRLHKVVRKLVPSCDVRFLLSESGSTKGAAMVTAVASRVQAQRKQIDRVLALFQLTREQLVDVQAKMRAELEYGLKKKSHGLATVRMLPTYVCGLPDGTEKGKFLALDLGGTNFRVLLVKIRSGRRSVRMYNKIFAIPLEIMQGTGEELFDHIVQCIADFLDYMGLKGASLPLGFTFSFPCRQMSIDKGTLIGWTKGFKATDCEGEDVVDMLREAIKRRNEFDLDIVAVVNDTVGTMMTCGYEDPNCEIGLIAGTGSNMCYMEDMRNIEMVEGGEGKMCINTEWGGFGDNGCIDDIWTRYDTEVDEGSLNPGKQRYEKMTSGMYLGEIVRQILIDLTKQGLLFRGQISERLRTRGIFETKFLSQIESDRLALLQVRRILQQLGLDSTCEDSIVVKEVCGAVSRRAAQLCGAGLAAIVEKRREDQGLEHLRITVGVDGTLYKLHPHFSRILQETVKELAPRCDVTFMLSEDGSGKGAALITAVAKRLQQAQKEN

[6] = target: Large T antigen (Simian virus 40, UniProt P03070); assay type: functional, Betapolyomavirus macacae;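 note: Confirmatory-stage PubChem screen for compounds that inhibit SV40 T antigen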
[7] = target: T4, Aryl hydrocarbon receptor (Homo sapiens, UniProt P35869); assay: Luminescence-based cell-based high throughput dose response assay for activators of the Aryl Hydrocarbon Receptor (AHR). [Related pubchem assays: 2796 (Primary screen (AHR activators in singlicate)), 2845 (Confirmation screen (AHR activators in triplicate)), 434939 (Counterscreen (PXR activators in triplicate)), 2804 (Summary (AHR activators))]; assay type: ADME
T4 sequence (P35869 whole entry): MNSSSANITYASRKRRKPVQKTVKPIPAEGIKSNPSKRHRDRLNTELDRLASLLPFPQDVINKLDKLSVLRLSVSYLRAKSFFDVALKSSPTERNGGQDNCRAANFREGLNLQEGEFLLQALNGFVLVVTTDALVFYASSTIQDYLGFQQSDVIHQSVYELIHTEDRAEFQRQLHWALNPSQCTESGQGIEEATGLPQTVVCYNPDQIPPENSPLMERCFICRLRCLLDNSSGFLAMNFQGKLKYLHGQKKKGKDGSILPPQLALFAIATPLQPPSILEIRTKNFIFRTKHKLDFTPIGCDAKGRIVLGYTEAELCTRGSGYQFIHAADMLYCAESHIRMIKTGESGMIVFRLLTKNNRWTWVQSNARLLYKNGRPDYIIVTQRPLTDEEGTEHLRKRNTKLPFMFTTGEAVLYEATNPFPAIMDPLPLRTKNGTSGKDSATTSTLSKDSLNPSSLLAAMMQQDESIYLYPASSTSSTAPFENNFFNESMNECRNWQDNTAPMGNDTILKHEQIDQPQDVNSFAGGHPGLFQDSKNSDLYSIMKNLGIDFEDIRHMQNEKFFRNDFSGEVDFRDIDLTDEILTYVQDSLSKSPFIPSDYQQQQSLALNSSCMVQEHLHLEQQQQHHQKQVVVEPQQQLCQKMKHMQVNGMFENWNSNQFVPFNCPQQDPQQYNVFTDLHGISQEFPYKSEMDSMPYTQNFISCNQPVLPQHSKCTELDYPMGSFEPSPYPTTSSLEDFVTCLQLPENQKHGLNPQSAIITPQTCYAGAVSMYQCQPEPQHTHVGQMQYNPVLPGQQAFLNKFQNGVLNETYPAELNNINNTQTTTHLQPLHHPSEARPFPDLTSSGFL

[8] = target: Prothrombin (Homo sapiens, UniProt P00734); assay: Thrombin 1536 HTS Dose Response Confirmation. [Related pubchem assays: 1046 (Thrombin 1536 HTS; hits were confirmed in this assay)]; assay type: functional
[9] = target: DNA dC->dU-editing enzyme APOBEC-3A (Homo sapiens, UniProt P31941); assay: Dose Response confirmation of small molecule APOBEC3A DNA Deaminase Inhibitors via a fluorescence-based single-stranded DNA deaminase assay. [Related pubchem assays (depositor defined):AID493011, AID493024]; assay type: functional
[10] = target: Polyadenylate-binding protein 1 (Homo sapiens, UniProt P11940); assay: blockers of PABP interaction with poly(A) – biochemical, fluorescence polarization, […] (AID 2014)
[11] = target: DNA dC->dU-editing enzyme APOBEC-3G (Homo sapiens, UniProt Q9HC16); assay type: functional;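 note: Dose-response counterscreen measuring inhibition of APOBEC3G DNA deaminase activity, run while confirming APOBEC3A inhibitors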
[12] = target: Eukaryotic translation initiation factor 4H (Homo sapiens, UniProt Q15056); assay: eIF4H binding inhibition – biochemical, uHTS, fluorescence polarization, translation initiation inhibitor project, primary screen (AID 2012)
[13] = test system: H9c2; assay: cells; assay type: functional, cell-based; conditions: Rattus norvegicus, H9c2, Myocardium;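 note: confirmatory concentration-response retest of ultra-high-throughput screening hits for modulation of myocardial damage; cell death induced by hydrogen peroxide oxidative stress; compound pretreatment for 60 min then peroxide exposure for 2 h; potency is for protecting the cells against peroxide damage rather than for killing them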
[14] = target: T5, Aminopeptidase N (Plasmodium falciparum FcB1/Columbia, UniProt O96935); assay: malaria alanyl aminopeptidase activity blockers – biochemical, fluorogenic H-Leu-NHMec substrate, 1536-well (AID 1445); design: species or system Plasmodium falciparum 3D7, 3D7
T5 sequence (O96935 whole entry): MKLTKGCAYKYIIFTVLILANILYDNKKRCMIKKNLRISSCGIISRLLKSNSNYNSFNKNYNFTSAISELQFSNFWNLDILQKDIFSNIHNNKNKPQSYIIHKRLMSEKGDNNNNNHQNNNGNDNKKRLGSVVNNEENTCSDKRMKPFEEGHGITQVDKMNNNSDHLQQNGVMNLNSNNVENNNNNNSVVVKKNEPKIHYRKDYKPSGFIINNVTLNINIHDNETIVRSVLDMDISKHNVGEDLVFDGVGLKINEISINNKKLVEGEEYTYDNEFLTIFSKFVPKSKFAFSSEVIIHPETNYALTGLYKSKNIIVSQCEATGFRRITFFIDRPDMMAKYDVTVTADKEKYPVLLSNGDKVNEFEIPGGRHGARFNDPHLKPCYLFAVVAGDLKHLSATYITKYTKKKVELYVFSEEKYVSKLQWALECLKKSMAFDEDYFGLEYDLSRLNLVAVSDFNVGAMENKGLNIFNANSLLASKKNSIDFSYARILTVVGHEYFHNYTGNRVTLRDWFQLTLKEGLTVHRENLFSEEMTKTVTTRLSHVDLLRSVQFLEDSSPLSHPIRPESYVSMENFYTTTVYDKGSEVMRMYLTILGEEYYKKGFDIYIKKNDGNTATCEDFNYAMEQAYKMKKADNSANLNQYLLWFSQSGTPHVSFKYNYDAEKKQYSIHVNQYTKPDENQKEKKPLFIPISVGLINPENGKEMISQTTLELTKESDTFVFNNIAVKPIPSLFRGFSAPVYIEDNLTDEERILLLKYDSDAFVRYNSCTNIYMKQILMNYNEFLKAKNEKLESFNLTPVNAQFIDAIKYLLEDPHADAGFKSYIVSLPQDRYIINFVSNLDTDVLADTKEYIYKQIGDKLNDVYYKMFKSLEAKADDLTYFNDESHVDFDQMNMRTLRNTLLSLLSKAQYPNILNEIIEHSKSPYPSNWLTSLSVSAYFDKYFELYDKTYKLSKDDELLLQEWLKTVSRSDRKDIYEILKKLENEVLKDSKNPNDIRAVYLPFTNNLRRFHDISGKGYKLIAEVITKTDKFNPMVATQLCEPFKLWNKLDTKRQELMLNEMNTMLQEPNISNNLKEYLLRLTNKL

[15] = target: Nonstructural protein 1 (Influenza A virus, UniProt Q194T2); assay type: functional, Influenza A virus (A/California/07/2009(H1N1))
[16] = fluconazole-exposed Candida albicans growth modulators – fluorescence, retest, confirmation (AID 2467); assay type: functional, cell-based
[17] = NIH-3T3 fibroblast cytotoxicity, dose response, cytotoxicity control, cell-based, fluorescence, Alamar Blue, secondary assay (AID 2327); assay type: functional;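 note: NIH-3T3 mouse fibroblasts cultured with fluconazole at 8 µg/mL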

Polyadenylate-binding protein 1, sequence (P11940 whole entry): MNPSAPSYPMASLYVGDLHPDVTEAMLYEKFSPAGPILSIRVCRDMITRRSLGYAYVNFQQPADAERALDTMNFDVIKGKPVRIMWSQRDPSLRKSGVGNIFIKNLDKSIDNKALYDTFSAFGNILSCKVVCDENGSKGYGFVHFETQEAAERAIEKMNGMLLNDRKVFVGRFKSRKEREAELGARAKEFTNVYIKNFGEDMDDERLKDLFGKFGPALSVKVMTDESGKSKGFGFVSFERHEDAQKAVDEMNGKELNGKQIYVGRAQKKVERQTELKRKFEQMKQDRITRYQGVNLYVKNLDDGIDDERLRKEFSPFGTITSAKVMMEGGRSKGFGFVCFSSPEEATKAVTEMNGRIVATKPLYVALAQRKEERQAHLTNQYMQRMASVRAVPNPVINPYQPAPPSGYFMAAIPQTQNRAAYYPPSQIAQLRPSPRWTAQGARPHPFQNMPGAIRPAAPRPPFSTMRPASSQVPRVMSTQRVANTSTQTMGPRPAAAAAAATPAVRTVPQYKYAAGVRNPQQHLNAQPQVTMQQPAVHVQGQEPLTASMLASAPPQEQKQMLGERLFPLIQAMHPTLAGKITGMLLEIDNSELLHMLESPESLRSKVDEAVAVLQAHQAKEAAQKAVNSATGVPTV
FAD-linked sulfhydryl oxidase ALR, sequence (P55789 whole entry): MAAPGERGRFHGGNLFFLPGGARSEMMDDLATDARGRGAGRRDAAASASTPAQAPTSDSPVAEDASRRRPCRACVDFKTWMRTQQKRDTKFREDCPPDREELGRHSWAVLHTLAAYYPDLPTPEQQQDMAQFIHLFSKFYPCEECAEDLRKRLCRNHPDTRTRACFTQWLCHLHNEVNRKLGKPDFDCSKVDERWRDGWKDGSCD
Large T antigen, sequence (P03070 whole entry): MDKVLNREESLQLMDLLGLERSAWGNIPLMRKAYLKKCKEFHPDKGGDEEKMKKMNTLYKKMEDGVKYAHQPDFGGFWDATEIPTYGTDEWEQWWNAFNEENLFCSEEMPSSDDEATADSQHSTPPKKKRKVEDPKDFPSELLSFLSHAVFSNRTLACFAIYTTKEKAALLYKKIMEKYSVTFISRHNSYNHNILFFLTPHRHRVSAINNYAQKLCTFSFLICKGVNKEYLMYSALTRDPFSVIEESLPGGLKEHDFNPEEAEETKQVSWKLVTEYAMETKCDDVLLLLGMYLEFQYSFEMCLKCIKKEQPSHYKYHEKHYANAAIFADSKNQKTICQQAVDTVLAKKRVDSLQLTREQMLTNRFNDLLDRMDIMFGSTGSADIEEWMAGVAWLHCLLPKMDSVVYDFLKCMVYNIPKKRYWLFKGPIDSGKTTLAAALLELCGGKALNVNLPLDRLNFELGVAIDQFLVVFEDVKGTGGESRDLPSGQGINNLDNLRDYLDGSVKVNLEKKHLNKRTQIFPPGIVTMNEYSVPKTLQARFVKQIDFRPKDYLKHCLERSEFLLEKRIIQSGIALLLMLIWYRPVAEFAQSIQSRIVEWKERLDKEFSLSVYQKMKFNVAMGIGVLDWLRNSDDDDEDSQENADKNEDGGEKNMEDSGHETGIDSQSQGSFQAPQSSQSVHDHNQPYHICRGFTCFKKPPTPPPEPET
DNA dC->dU-editing enzyme APOBEC-3G, sequence (Q9HC16 whole entry): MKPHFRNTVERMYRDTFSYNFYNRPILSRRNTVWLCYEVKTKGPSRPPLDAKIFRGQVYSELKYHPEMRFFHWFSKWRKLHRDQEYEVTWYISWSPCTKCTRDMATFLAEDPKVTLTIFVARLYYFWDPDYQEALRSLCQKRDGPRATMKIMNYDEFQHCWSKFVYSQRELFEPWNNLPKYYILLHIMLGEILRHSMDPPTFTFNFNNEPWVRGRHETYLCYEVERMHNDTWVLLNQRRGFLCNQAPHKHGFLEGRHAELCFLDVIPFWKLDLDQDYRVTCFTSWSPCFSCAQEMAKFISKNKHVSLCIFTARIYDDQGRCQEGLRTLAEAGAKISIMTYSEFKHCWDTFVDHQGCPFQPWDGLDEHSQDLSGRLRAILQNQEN
DNA dC->dU-editing enzyme APOBEC-3A, sequence (P31941 whole entry): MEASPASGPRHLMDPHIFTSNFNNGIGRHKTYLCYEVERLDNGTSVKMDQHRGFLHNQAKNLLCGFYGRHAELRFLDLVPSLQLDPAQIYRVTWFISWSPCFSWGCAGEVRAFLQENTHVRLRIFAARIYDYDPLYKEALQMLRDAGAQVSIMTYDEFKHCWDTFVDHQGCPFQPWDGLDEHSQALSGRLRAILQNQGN
Nonstructural protein 1, sequence (Q194T2 whole entry): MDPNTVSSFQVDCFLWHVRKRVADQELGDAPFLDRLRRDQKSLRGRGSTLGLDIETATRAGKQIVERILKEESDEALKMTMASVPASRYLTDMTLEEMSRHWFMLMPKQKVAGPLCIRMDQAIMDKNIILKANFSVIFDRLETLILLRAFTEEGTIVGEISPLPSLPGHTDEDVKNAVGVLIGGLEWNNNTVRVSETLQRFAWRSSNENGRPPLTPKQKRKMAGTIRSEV

SMILES: CCN(CC)c1ccc(NC(=O)c2ccc(Br)o2)cc1
- IC50 [1]: 25.9 µM (active)
- AC50 [2]: 0.745 µM (active)
- IC50 [3]: > 100 µM (active)

SMILES: O=C(Nc1nc2ccccc2s1)c1cc2c(s1)-c1ccccc1OC2
- IC50 [4]: > 50 µM (not active)

SMILES: COc1cc(/C=C2/C(=O)NN(c3ccc(Cl)c(Cl)c3)C2=O)cc([N+](=O)[O-])c1O
- IC50 [5]: 32.5 µM (inactive)
- IC50 [6]: 12.5 µM (active)
- AC50 [2]: 0.409 µM (active)

SMILES: Cn1c(N)c(C(=O)Nc2ccccc2F)sc1=S
- EC50 [7]: 0.857 µM (active)

SMILES: Cn1c(=O)c2c(nc(/C=C/c3cccc(Cl)c3)n2C)n(C)c1=O
- EC50 [7]: 3.34 µM (active)

SMILES: CCC(=O)n1nc(-c2ccc(Cl)cc2)nc1SC
- IC50 [8]: 7.14 µM (active)

SMILES: COc1ccc(N(CC(=O)N2CCCCCC2)S(=O)(=O)c2ccccc2[N+](=O)[O-])c(OC)c1
- IC50 [9]: 5.63 µM (active)
- IC50 [10]: 11.9 µM (active)
- IC50 [11]: 4.83 µM (active)
- IC50 [12]: > 100 µM (inactive)

SMILES: COc1ccccc1NC(=O)C1C2CCCCC21 (stereo unspecified)
- IC50 [8]: > 50 µM (not active)

SMILES: Cc1cc(C(F)F)n2ncc(C(=O)NCCc3ccc(Cl)cc3)c2n1
- IC50 [5]: 12.7 µM (active)

SMILES: CC(=O)n1cc(/C=N/NC(=O)c2sc(C)nc2C)c2ccccc21
- EC50 [7]: > 91.7 µM (not active)
- IC50 [13]: > 79 µM (inactive)

SMILES: COc1cc(/C=C2\SC(=S)N(C(Cc3ccccc3)C(=O)O)C2=O)ccc1O (stereo unspecified)
- IC50 [6]: 65 µM (active)
- IC50 [14]: 42.3 µM (active)

SMILES: COC(=O)C1CC(=O)c2ccsc2C1 (stereo unspecified)
- IC50 [8]: > 50 µM (not active)

SMILES: Oc1ccc(/C=N/N(c2ccccc2)c2ccccc2)c(O)c1O
- IC50 [15]: 47.6 µM (active)
- IC50 [10]: > 100 µM (inactive)
- EC50 [16]: > 38 µM (not active)
- EC50 [17]: > 160 µM (inactive)
- IC50 [12]: 31.7 µM (active)

SMILES: CCCS(=O)(=O)N1CCC(C(=O)NCc2ccc(F)cc2)CC1
- IC50 [14]: 31.6 µM (active)

SMILES: C[n+]1cnn2c1SCC1(COC1)C2
- IC50 [10]: 4.59 µM (active)
- IC50 [12]: > 100 µM (inactive)

SMILES: Nc1nncn1C(=O)CCc1ccccc1
- IC50 [8]: 0.605 µM (active)

SMILES: COc1cc(-c2nnc(-c3ccc(S(=O)(=O)c4ccccc4)cc3)o2)cc(OC)c1OC
- IC50 [4]: > 50 µM (not active)
